Tests used:
[1] = molecular target: T1, recombinant HIV-1 capsid protein (CA) (Human immunodeficiency virus type 1 group M subtype B, UniProt P12493); test: Turbidity based HIV-1 capsid assembly assay; assay type: biochemical; details: initial assembly rate by turbidity; twofold dilutions over a 128 fold range; 30 μM CA, 2.25 M NaCl
T1 construct: recombinant HIV-1 capsid protein (CA); made in house
Protocol: The kinetics can be followed by monitoring the increase of turbidity using a spectrophotometer. The IC50 of the chemical compound tested is determined by titration. As the C-domain inhibits capsid assembly by forming CA-C-domain heterodimers, the effect of added C-terminal domain on the rate of assembly was evaluated by plotting the rate of assembly versus C-terminal domain concentration.
Soluble HIV-1 capsid protein can be triggered to assemble into tubes similar in diameter and morphology to intact cores by dilution into high iconic strength buffer. The kinetics of assembly can be followed by monitoring the increase in turbidity using a spectrophotometer (Lanham et al., J. Virol., 76:6900, 2002). This assembly assay was adapted to a 96-well, microplate format to allow for medium-throughput screening of compounds by measuring turbidity in a Nepeloskan Ascent plate reader (Thermo Electron Corp., UK). A DIVERSet™ library of 10,000 low molecular weight, “drug-like” compounds was purchased from ChemBridge Corp. (San Diego, Calif.). This library was selected for its potential bioavailability and application based on a pharmacophore diversity analysis. The average molecular weight of the compounds is 347 g/mol, the range being 200-596 g/mol. The compounds came plated in 96-well plates and solubilized in DMSO at 5 mgs/mL.
Turbidity based assay. A 1.5 μL aliquot of compound was diluted 90-fold into 50 mM Na2HPO4, […] buffer, pH 8 in an optically clear 96-well plate. The plate containing compounds and salt was read to check for compound solubility and to serve as a background reading for the assay. To initiate the assembly reaction, 15 μL of […] stock (in 50 mM Na2HPO4 pH 8) of recombinant HIV-1 capsid protein (CA), purified as described (Lanman et al., J. Virol., 76:6900, 2002), was added to each well of the 96-well plate using a multi-channel pipettor. […] Furthermore, the halftime of the assembly reaction is ˜5 minutes so reading the plate in thirds prevented loss of initial rate data. Therefore, CA was added to the first 4 lanes, the reactions followed for ten minutes, reading was paused, CA was then added to the next four lanes and the process repeated. Instrument settings are as follows: PMT gain of 500 V, lamp at 10V, and integration time of 60 ms. The data were exported to a custom designed Excel spreadsheet that allowed simultaneous plotting of kinetic curves.
Recombinant CA protein was purified as previously described and stored at 300 μM at −80° C. A turbidity based assembly assay, described above, was adapted to a 96-well, microplate format to allow for medium-throughput screening of compounds in a Nepheloskan Ascent plate reader (Thermo Electron Corp., UK). A 1.5 μL aliquot of compound or DMSO was diluted 90-fold into 50 mM Na2HPO4, 2.25 M NaCl buffer, pH 8 in an optically clear 96-well plate. To initiate the assembly reaction, 15 μL of the 300 μM stock (in 50 mM Na2HPO4 pH 8) of recombinant HIV-1 capsid protein (CA), was added to each well of the 96-well plate using a multi-channel pipettor.

[2] = MTS score (Table 1; method not described); assay type: cell-based; details: for MTS AVG 4 (No Effect): average of the MTS scores at 10, 30 and 100 μM; for MTS 10 μM: score at nominal 10 μM; for MTS 10 μM / MTS 30 μM / MTS 100 μM: 4 = No Effect; for MTS 30 μM: score at nominal 30 μM; for MTS 100 μM: score at nominal 100 μM
HIV-1NL43 [3] = test: Anti-HIV assay (single round), infectivity of virus produced, titered on TZM-b1 cells; assay type: cell-based; details: virus from NL43-transfected 293T cells, 72 hours; luciferase after two days; read-out: Infectivity 50%
Protocol: (§1) Anti-HIV Assays (Single Round). The inhibitory effect of the compounds on virus production and infectivity were determined by measuring the level of p24 produced in the presence of various concentrations of compounds from HEK-293 cells transiently transfected with pNL43 and by titering the virus on TZM-b1 cells. Briefly, 2.5×10^5 HEK-293 cells/ml were transfected with pNL43 using FuGene 6. Four hours post transfection the cells were plated in 96-well plates containing 100 μl of various concentrations of compounds (0-75 μM or 0-300 μM for mock transfected cells) in triplicate. At 72-hours post transfection virus supernatant was collected and stored at −80° C. until analysis. The level of p24 produced at each compound concentration was determined relative to the level produced in the presence of the DMSO only controls using HIV-1 p24 enzyme-linked immunosorbent assay (ELISA) (Beckman-Coulter). To determine the infectivity of the virus produced TZM-b1 cells were plated at 1×10^5 cells/ml in 100 μL in 96-well plates overnight. The next day, the media was replaced with 75 μL DMEM supplemented with 1% FBS, 1× PSG and 40 μg/ml DEAE Dextran and 25 μL of viral supernatant from the HEK-293 cells was added to each well. Three hours later 100 μL of DMEM with 7% FBS was added to each well. Two days after infection the cells were lysed and the level of luciferase expression was determined using the Bright-Glo assay.
(§2) FIGS. 12-18 show the anti-HIV assays for the examples of chemical compounds used according to the invention. After in-vitro assay, the chemical compounds in FIGS. 12-18 were selected for screening for cell viability and toxicity. Jurkat cells assay was used as screening assay. In Jurkat cells assay, JLTRG-R5 cells were used as Indicator cells and MOLT4 cells as Producer cells of NL43 and BAL virus. 96 chemical compounds were plated at seven different concentration from 75 μM to 0 μM at three-fold serial dilutions in 384 well plate. After five days, GFP expression was read. Cell viability was monitored with Alamar Blue assay. Luc M7 assay was designed to measure inhibitory activity of the chemical compounds to viral replication. After infection of cells with YU2 virus, plate cells in 96-well plate in the presence of six concentration of compounds in DMSO. At day 6, the number of cells in wells were read with Cell Titer Glo kit or by counting the number of cells infected with Bright Glo kit. 293T cells assay was designed to determine the toxicity. 293T cells were transfected with NL43. After four hours, transfected cells were plated in 96-well plate in DMSO and 2 μM Indinavir. 72 hours later, viral supernatant was collected and plated on JC53BL. Luciferase expression was measure after two days and p24 analysis was conducted with 1:1000 and 1:2000 dilutions.

HIV-1NL43 [4] = test: Anti-HIV assay (single round), p24 production by pNL43-transfected cells (ELISA); assay type: cell-based; details: p24 in supernatant of NL43-transfected 293T cells, 72 hours; read-out: p24 50%
Protocol: as §1, §2

293T cells = test: Toxicity in 293T cells; assay type: cell-based, human; set-up: unit not given beside the values
Protocol: as §1, §2

HIV-1YU2 = test: Anti-HIV assay (multiple round), luciferase expression in Luc-M7 cells; assay type: cell-based; details: Luc-M7 cells infected with HIV-1YU2, 6 days, Bright-Glo
Protocol: (§3) Anti-HIV Assays (Multiple Round). The inhibitory effects of the tested compounds on HIV-1YU2 replication were determined by the level of luciferase expression after 6 days of infection using Bright-Glo assay (Promega). An amount of 1.5×10^4 Luc-M7 (a gift from Ned Landau) cells per ml were infected with HIV-1YU2 at a multiplicity of infection (MOI) of 3. The HIV-1 infected ([…] compound) or mock-infected (0-300 μM compound) Luc-M7 cells were placed in 96-well culture plates (100 μl/well) with 100 μl of various concentrations of the compounds with 20 μg/ml DEAE Dextran in triplicate and incubated at 37° C. under 5% CO2 at 100% humidity. After 6 days, cell viability was quantified by Cell-Titer Glo assay (Promega). […] On day 5 cell viability was determined in the mock-infected cells. FIGS. 12-18 show the anti-HIV assays for the examples of chemical compounds used according to the invention. After in-vitro assay, the chemical compounds in FIGS. 12-18 were selected for screening for cell viability and toxicity. Jurkat cells assay was used as screening assay. […] After five days, GFP expression was read. Cell viability was monitored with Alamar Blue assay. Luc M7 assay was designed to measure inhibitory activity of the chemical compounds to viral replication. After infection of cells with YU2 virus, plate cells in 96-well plate in the presence of six concentration of compounds in DMSO. At day 6, the number of cells in wells were read with Cell Titer Glo kit or by counting the number of cells infected with Bright Glo kit. 293T cells assay was designed to determine the toxicity. 293T cells were transfected with NL43. After four hours, transfected cells were plated in 96-well plate in DMSO and 2 μM Indinavir. 72 hours later, viral supernatant was collected and plated on J[…].

Luc-M7 cells = test: Cell viability of Luc-M7 cells (Cell-Titer Glo); assay type: cell-based; set-up: unit: μM; details: mock-infected Luc-M7 cells, 6 days
Protocol: as §3

| Structure (SMILES) | IC50 [1] [µM] | MTS AVG 4 (No Effect) [2] | MTS 10 μM [2] | MTS 30 μM [2] | MTS 100 μM [2] | IC50 (HIV-1NL43 [3]) [µM] | IC50 (HIV-1NL43 [4]) [µM] | TC50% (293T cells) | IC50 (HIV-1YU2) [nM] | TC50 (Luc-M7 cells) |
| --- | --- | --- | --- | --- | --- | --- | --- | --- | --- | --- |
| COc1ccc(NS(=O)(=O)c2ccc(Br)cc2)cc1OC [Compound 14] | 10 | 1.667 | 2 | 1 | 2 | > 75 | 62.8 | 102 | – | – |
| Cc1nc2ccccc2n1Cc1ccc(Br)cc1 [Compound 18] | 21 | 1.000 | 1 | 1 | 1 | 43.2 | 1.8 | 9.1 | – | – |
| O=[N+]([O-])c1c(Cl)cc(O)c2c1C1C=CCC1C(c1ccc(Br)cc1)N2 (centres unmarked) [Compound 25] | 10 | 1.000 | 1 | 1 | 1 | 17.7 | 10.4 | 174 | – | – |
| O=C(O)C(S)Cc1ccc(Cl)cc1 (centres unmarked) [Compound 47] | 37 | 2.000 | 4 | 1 | 1 | 34.2 | 24.6 | 202 | – | – |
| CCc1ccc(OCCCCCn2ccnc2)cc1 [Compound 58] | 25 | 1.333 | 2 | 1 | 1 | 10 | 1.69 | 5 | 60 | 8.7 |
| CCN(CC)c1ccc(C=Nc2ccc(Sc3ccc([N+](=O)[O-])cc3)cc2)cc1 [Compound 70] | 33 | 3.000 | – | 4 | 2 | 32.9 | 67.5 | 135 | 1470 | 92.5 |
| Cc1ccc(S(=O)(=O)NN=Cc2cc(Br)cc(Br)c2O)cc1 [Compound 73] | 15 | 3.000 | 4 | 3 | 2 | 32 | 70 | 178 | – | – |
